Laboratory results reported in patent publication US10829796B2, “Bacteria identification and antimicrobial susceptibility test” (priority 2015, dated 2020).

Test system: bacteria in clinical bovine mastitis milk samples
Experiment: Combined bacteria identification and antimicrobial susceptibility test (colour of wells, MIC) on clinical bovine mastitis milk samples
Assay type: cell-based
Protocol: Clinical bovine mastitis milk samples were collected by a vet clinic in South Island, New Zealand. Samples were stored in the freezer for several months and shipped frozen to the testing facility. In this Example, the term “clinical” means that dairy cows had clinical symptoms of an udder infection e.g. cow behaved unusual, milk clots, swollen udder among other typical symptoms. Testing was executed in microwell plate comprising of 24 wells (3×8 wells).
In addition, 20 ul of clinical mastitis sample was added to each well with a laboratory pipette.
(§1) Abbreviations • 1. 80 ul GC+10 ul Tell: 80 ul Giolitti Cantoni base broth+10 ul Tellurite solution (1%); • 2. 80 ul TSB/Esc/Fer Cit: 80 ul Tryptic soy broth containing 0.25% Esculin and 0.125% Ammonium Ferric Citrate; • 3. 80 ul TSB/Esc/Fer Cit+10 ul Genta: 80 ul Tryptic soy broth containing 0.25% Esculin and 0.125% Ammonium Ferric Citrate+10 ul of Gentamycin solution 10 mg/ml; • 4. 80 ul McC/PR25: 80 ul MacConkey broth (single strength) containing 0.0125% phenol red; and • 5. 80 ul TSB/PR25: 80 ul Tryptic soy broth containing 0.0125% phenol red. Bacteria Identification
Columns A to C and rows 1 and 2 were used for bacteria identification. A1: coagulase positive Staph; A2: Staphylococci; B1: Strep group D; B2: Strep group D; C1: general enrichment media (gram+ and gram-bacteria); C2: coliform bacteria.
Column A3 to A8: serial dilution of benzyl penicillin as potassium. Column B3 to B8: serial dilution of ceftiofur as hydrochloride. Column C3 to C8: serial dilution of cloxacillin as sodium. Antibiotic concentrations are listed as free form ranging between 4 ug/ml to 0.05 ug/ml.
Minimum inhibitory substance concentration (MIC) is here defined as the concentration if a colour change occurs between two wells (one well remains red with drug concentration 1, the other one yellow with drug concentration 2, whereas drug concentration 1 is larger than drug concentration 2) then the MIC is the value of drug concentration 1.
Table 21 indicates the microwell plate configuration #1; Drugs: Benzylpenicillin as potassium; Cloxacillin as sodium; Ceftiofur as hydrochloride; Drug concentration in each well (A3 to C8) is based on 80 μl composition+10 μl drug solution+20 μl clinical mastitis milk sample and equivalent to listed drug concentration in μg/ml; 20 ul of clinical bovine mastitis milk sample was added to each well (A1 to C8).
In addition, each well received one drop of clinical sample from a transfer pipette which was on average about 35 mg. This was determined through weighing the well plate prior and after the addition of clinical mastitis samples. This weight was then divided by 24.
as §1, with “•” for “Abbreviations •”, “red.” for “red. Bacteria Identification”
Columns A to C and rows 1 and 2 were used for bacteria identification. A1: coagulase positive Staph; A2: Staphylococci; B1: Strep Group D; B2: -; C1: general enrichment media (gram+ and gram-); C2: coliform bacteria.
Column A3 to A8: serial dilution of benzyl penicillin as potassium. Drug concentrations given as free form ranging between 4 ug/ml to 0.05 ug/ml. Column B3 to B8: serial dilution of ceftiofur as hydrochloride. Drug concentrations given as free form ranging between 4 ug/ml to 0.05 ug/ml. Column C3 to C8: serial dilution of cloxacillin as sodium. Drug concentrations given as free form ranging between 4 ug/ml to 0.05 ug/ml.

CO/N=C(\C(=O)N[C@@H]1C(=O)N2C(C(=O)O)=C(CSC(=O)c3ccco3)CS[C@H]12)c1csc(N)n1 [ceftiofur]
Colour of media in each well (ID 5 to 8, T = 0 h (prior incubation, reference), plate configuration #2, drug 2 μg/ml): red
Colour of media in each well (ID 5 to 8, T = 0 h (prior incubation, reference), plate configuration #2, drug 4 μg/ml): red
Colour of media in each well (ID 6, T = 23h, 37° C., plate configuration #2, drug 0.05 μg/ml (Table 31)): yellow
Colour of media in each well (ID 6, T = 23h, 37° C., plate configuration #2, drug 0.1 μg/ml (Table 31)): yellow
Colour of media in each well (ID 6, T = 23h, 37° C., plate configuration #2, drug 0.5 μg/ml (Table 31)): yellow
Colour of media in each well (ID 6, T = 23h, 37° C., plate configuration #2, drug 1 μg/ml (Table 31)): yellow
Colour of media in each well (ID 6, T = 23h, 37° C., plate configuration #2, drug 2 μg/ml (Table 31)): red
Colour of media in each well (ID 6, T = 23h, 37° C., plate configuration #2, drug 4 μg/ml (Table 31)): red
Colour of media in each well (ID 6, T~7 h, 37° C., plate configuration #2, Table 35, drug 0.05 μg/ml): yellow
Colour of media in each well (ID 6, T~7 h, 37° C., plate configuration #2, Table 35, drug 0.1 μg/ml): yellow
Colour of media in each well (ID 6, T~7 h, 37° C., plate configuration #2, Table 35, drug 0.5 μg/ml): yellow
Colour of media in each well (ID 6, T~7 h, 37° C., plate configuration #2, Table 35, drug 1 μg/ml): red
Colour of media in each well (ID 6, T~7 h, 37° C., plate configuration #2, Table 35, drug 2 μg/ml): red
Colour of media in each well (ID 6, T~7 h, 37° C., plate configuration #2, Table 35, drug 4 μg/ml): red
Colour of media in each well (ID 6, T~11 h, 37° C., plate configuration #2, Table 35, drug 0.05 μg/ml): yellow
Colour of media in each well (ID 6, T~11 h, 37° C., plate configuration #2, Table 35, drug 0.1 μg/ml): yellow
Colour of media in each well (ID 6, T~11 h, 37° C., plate configuration #2, Table 35, drug 0.5 μg/ml): yellow
Colour of media in each well (ID 6, T~11 h, 37° C., plate configuration #2, Table 35, drug 1 μg/ml): red
Colour of media in each well (ID 6, T~11 h, 37° C., plate configuration #2, Table 35, drug 2 μg/ml): red
Colour of media in each well (ID 6, T~11 h, 37° C., plate configuration #2, Table 35, drug 4 μg/ml): red
Colour of media in each well (ID 6, T~23 h, 37° C., plate configuration #2, Table 35, drug 0.05 μg/ml): yellow
Colour of media in each well (ID 6, T~23 h, 37° C., plate configuration #2, Table 35, drug 0.1 μg/ml): yellow
Colour of media in each well (ID 6, T~23 h, 37° C., plate configuration #2, Table 35, drug 0.5 μg/ml): yellow
Colour of media in each well (ID 6, T~23 h, 37° C., plate configuration #2, Table 35, drug 1 μg/ml): yellow
Colour of media in each well (ID 6, T~23 h, 37° C., plate configuration #2, Table 35, drug 2 μg/ml): red
Colour of media in each well (ID 6, T~23 h, 37° C., plate configuration #2, Table 35, drug 4 μg/ml): red
Colour of media in each well (ID 7, T = 23h, 37° C., plate configuration #2, drug 0.05 μg/ml): yellow
Colour of media in each well (ID 7, T = 23h, 37° C., plate configuration #2, drug 0.1 μg/ml): yellow
Colour of media in each well (ID 7, T = 23h, 37° C., plate configuration #2, drug 0.5 μg/ml): yellow
Colour of media in each well (ID 7, T = 23h, 37° C., plate configuration #2, drug 1 μg/ml): red
Colour of media in each well (ID 7, T = 23h, 37° C., plate configuration #2, drug 2 μg/ml): red
Colour of media in each well (ID 7, T = 23h, 37° C., plate configuration #2, drug 4 μg/ml): red
Colour of media in each well (ID 8, T = 23 h, 37° C., plate configuration #2, drug 0.05 μg/ml): yellow
Colour of media in each well (ID 8, T = 23 h, 37° C., plate configuration #2, drug 0.1 μg/ml): yellow
Colour of media in each well (ID 8, T = 23 h, 37° C., plate configuration #2, drug 0.5 μg/ml): red
Colour of media in each well (ID 8, T = 23 h, 37° C., plate configuration #2, drug 1 μg/ml): red
Colour of media in each well (ID 8, T = 23 h, 37° C., plate configuration #2, drug 2 μg/ml): red
Colour of media in each well (ID 8, T = 23 h, 37° C., plate configuration #2, drug 4 μg/ml): red
Colour of media in each well (Table 24, sample ID 2, 22 hours at 37° C., plate configuration #1, row 3 of serial dilution 4 ug/ml to 0.05 ug/ml): red
Colour of media in each well (Table 24, sample ID 2, 22 hours at 37° C., plate configuration #1, row 4 of serial dilution 4 ug/ml to 0.05 ug/ml): red
Colour of media in each well (Table 24, sample ID 2, 22 hours at 37° C., plate configuration #1, row 5 of serial dilution 4 ug/ml to 0.05 ug/ml): red
Colour of media in each well (Table 24, sample ID 2, 22 hours at 37° C., plate configuration #1, row 6 of serial dilution 4 ug/ml to 0.05 ug/ml): orange
Colour of media in each well (Table 24, sample ID 2, 22 hours at 37° C., plate configuration #1, row 7 of serial dilution 4 ug/ml to 0.05 ug/ml): yellow
Colour of media in each well (Table 24, sample ID 2, 22 hours at 37° C., plate configuration #1, row 8 of serial dilution 4 ug/ml to 0.05 ug/ml): yellow
MIC (clinical sample ID 1 (streptococci group D), 37° C. for 22 hours, plate configuration #1): 0.5 µg/mL
MIC (clinical sample ID 2 (streptococci group D, also coagulase positive Staph), 37° C. for 22 hours, plate configuration #1): 1 µg/mL
MIC (clinical sample ID 3 (coliform bacteria), 37° C. for 22 hours, plate configuration #1): 1 µg/mL
MIC (clinical sample ID 4 (coagulase positive Staph), 37° C. for 22 hours, plate configuration #1): 1 µg/mL
MIC (clinical sample ID 5 (streptococci group D), 37° C. for 23 hours, plate configuration #2): 0.5 µg/mL
MIC (clinical sample ID 6 (coliform bacteria), 37° C. for 23 hours, plate configuration #2): 2 µg/mL
MIC (clinical sample ID 7 (coagulase positive Staph), 37° C. for 23 hours, plate configuration #2): 1 µg/mL
MIC (clinical sample ID 8 (coagulase negative Staph and Streptococci group D), 37° C. for 23 hours, plate configuration #2): 0.5 µg/mL
